From patent US8247211B2, “Glycopeptide antibiotics” (American Cyanamid Company, priority 2001, dated 2012)

How the values were obtained:
Assay in all cases: In vitro antibacterial evaluation: minimum inhibitory concentration (MIC), broth dilution method
Assay type in all cases: cell-based
[1] = tested on: Enterococcus sp.; details: 18 hours at 35° C.
Procedure: (§1) The minimum inhibitory concentration (MIC), the lowest concentration of the antibiotic which inhibits growth of the test organism, is determined by the broth dilution method using Muller-Hinton II […] (Baltimore Biological Laboratories) following the recommendations of the National Committee for Clinical Laboratory Standards [Methods for dilution antimicrobial susceptibility tests for bacteria that grow aerobically, approved standard M7-A2, National Committee for Clinical Laboratory Standards, Villanova, Pa].
(§2) An inoculum level of 5×10^5 CFU/mL, and a range of antibiotic concentrations (64-0.06 μg/mL) is used. […] The test organisms include a spectrum of Gram-positive bacteria comprised of Staphylococcus sp., Streptococcus sp. and Enterococcus sp. These organisms include recent clinical isolates that are resistant to methicillin, penicillin and/or vancomycin.

[2] = tested on: Escherichia coli; details: 18 hours at 35° C.
Procedure: as §1, §2

[3] = tested on: Staphylococcus sp.
Procedure: as §1, §2

[4] = tested on: Streptococcus sp.; details: 18 hours at 35° C.
Procedure: as §1, §2

[5] = Enterococcus faecalis (ATCC 29212)
[6] = Enterococcus faecalis (GC 2242)
[7] = Enterococcus faecalis (GC 2691)
[8] = Enterococcus faecalis (GC 3059)
[9] = Enterococcus faecalis (GC 4552)
[10] = Enterococcus faecalis (GC 4553)
[11] = Enterococcus faecalis (GC 4554)
[12] = Enterococcus faecalis (GC 6189)
[13] = Streptococcus agalactiae (GC 4564)
[14] = Streptococcus pneumoniae (ATCC 6301)
[15] = Streptococcus pneumoniae (GC 1894)
[16] = Streptococcus pneumoniae (GC 4565)
[17] = Streptococcus pyogenes (GC 4563)
[18] = broth dilution, inoculum 5×10^5 CFU/mL

α-O-[(Heptylamino)carbonyl]-cyclo(glycyl-β-methylphenylalanyl-O-(4-O-hexopyranosylhexopyranosyl)tyrosyl-3-(2-iminoimidazolidin-4-yl)seryl-3-(3-hexopyranosyl-2-iminoimidazolidin-4-yl)serylseryl] [Example 253]
8 µg/mL: MIC Streptococcus pneumoniae (GC 1894) [4, 15] | MIC Streptococcus pneumoniae (GC 1894) ([4]; broth dilution, strain GC 1894)
>64 µg/mL: MIC Enterococcus faecalis (ATCC 29212) [1, 5] | MIC Enterococcus faecalis (GC 2242) [1, 6] | MIC Enterococcus faecalis (GC 2691) [1, 7] | MIC Enterococcus faecalis (GC 3059) [1, 8] | MIC Enterococcus faecalis (GC 4552) [1, 9] | MIC Enterococcus faecalis (GC 4553) [1, 10] | MIC Enterococcus faecalis (GC 4554) [1, 11] | MIC Enterococcus faecalis (GC 6189) [1, 12] | MIC Enterococcus faecium (GC 2243) ([1]; Enterococcus faecium (GC 2243)) | MIC Enterococcus faecium (GC 4556) ([1]; Enterococcus faecium (GC 4556)) | MIC Enterococcus faecalis (ATCC 29212) ([1]; broth dilution, strain ATCC 29212) | MIC Enterococcus faecalis (GC 2242) ([1]; broth dilution, strain GC 2242) | MIC Enterococcus faecium (GC 2243) ([1]; broth dilution, strain GC 2243) | MIC Enterococcus faecalis (GC 2691) ([1]; broth dilution, strain GC 2691) | MIC Enterococcus faecalis (GC 3059) ([1]; broth dilution, strain GC 3059) | MIC Enterococcus faecalis (GC 4552) ([1]; broth dilution, strain GC 4552) | MIC Enterococcus faecalis (GC 4553) ([1]; broth dilution, strain GC 4553) | MIC Enterococcus faecalis (GC 4554) ([1]; broth dilution, strain GC 4554) | MIC Enterococcus faecium (GC 4556) ([1]; broth dilution, strain GC 4556) | MIC Enterococcus faecalis (GC 6189) ([1]; broth dilution, strain GC 6189) | MIC Escherichia coli (ATCC 25922) [2] | MIC Escherichia coli (GC 4559) [2] | MIC Coagulase Negative Staphylococcus (GC 4551) ([3]; Coagulase Negative Staphylococcus (GC 4551), 18 hours at 35° C.) | MIC Staphylococcus aureus (ATCC 29213) ([3]; Staphylococcus aureus (ATCC 29213), 18 hours at 35° C.) | MIC Staphylococcus aureus (GC 1131) ([3]; Staphylococcus aureus (GC 1131), 18 hours at 35° C.) | MIC Staphylococcus aureus (GC 3051) ([3]; Staphylococcus aureus (GC 3051), 18 hours at 35° C.) | MIC Staphylococcus aureus (GC 3053) ([3]; Staphylococcus aureus (GC 3053), 18 hours at 35° C.) | MIC Staphylococcus aureus (GC 4542) ([3]; Staphylococcus aureus (GC 4542), 18 hours at 35° C.) | MIC Staphylococcus aureus (GC 4544) ([3]; Staphylococcus aureus (GC 4544), 18 hours at 35° C.) | MIC Staphylococcus aureus (ATCC 29213) ([3]; broth dilution, 18 hours at 35° C., strain ATCC 29213) | MIC Staphylococcus aureus (GC 1131) ([3]; broth dilution, 18 hours at 35° C., strain GC 1131) | MIC Staphylococcus aureus (GC 3051) ([3]; broth dilution, 18 hours at 35° C., strain GC 3051) | MIC Staphylococcus aureus (GC 3053) ([3]; broth dilution, 18 hours at 35° C., strain GC 3053) | MIC Staphylococcus aureus (GC 4542) ([3]; broth dilution, 18 hours at 35° C., strain GC 4542) | MIC Staphylococcus aureus (GC 4544) ([3]; broth dilution, 18 hours at 35° C., strain GC 4544) | MIC Coagulase Negative Staphylococcus (GC 4551) ([3]; broth dilution, 18 hours at 35° C., strain GC 4551)
16 µg/mL: MIC Streptococcus pneumoniae (ATCC 6301) [4, 14] | MIC Streptococcus pneumoniae (GC 4565) [4, 16] | MIC Streptococcus pneumoniae (ATCC 6301) ([4]; broth dilution, strain ATCC 6301) | MIC Streptococcus pneumoniae (GC 4565) ([4]; broth dilution, strain GC 4565)
64 µg/mL: MIC Enterococcus avium (GC 4558) ([1]; Enterococcus avium (GC 4558)) | MIC Enterococcus avium (GC 4558) ([1]; broth dilution, strain GC 4558) | MIC Coagulase Negative Staphylococcus (GC 4547) ([3]; Coagulase Negative Staphylococcus (GC 4547), 18 hours at 35° C.) | MIC Coagulase Negative Staphylococcus (GC 4548) ([3]; Coagulase Negative Staphylococcus (GC 4548), 18 hours at 35° C.) | MIC Coagulase Negative Staphylococcus (GC 4549) ([3]; Coagulase Negative Staphylococcus (GC 4549), 18 hours at 35° C.) | MIC Staphylococcus aureus (GC 4541) ([3]; Staphylococcus aureus (GC 4541), 18 hours at 35° C.) | MIC Staphylococcus aureus (GC 4545) ([3]; Staphylococcus aureus (GC 4545), 18 hours at 35° C.) | MIC Staphylococcus aureus-SMITH (GC 4543) ([3]; Staphylococcus aureus-SMITH (GC 4543), 18 hours at 35° C.) | MIC Staphylococcus haemolyticus (GC 4546) ([3]; Staphylococcus haemolyticus (GC 4546), 18 hours at 35° C.) | MIC Staphylococcus aureus (GC 4541) ([3]; broth dilution, 18 hours at 35° C., strain GC 4541) | MIC Staphylococcus aureus-SMITH (GC 4543) ([3]; broth dilution, 18 hours at 35° C., strain GC 4543) | MIC Staphylococcus aureus (GC 4545) ([3]; broth dilution, 18 hours at 35° C., strain GC 4545) | MIC Staphylococcus haemolyticus (GC 4546) ([3]; broth dilution, 18 hours at 35° C., strain GC 4546) | MIC Coagulase Negative Staphylococcus (GC 4547) ([3]; broth dilution, 18 hours at 35° C., strain GC 4547) | MIC Coagulase Negative Staphylococcus (GC 4548) ([3]; broth dilution, 18 hours at 35° C., strain GC 4548) | MIC Coagulase Negative Staphylococcus (GC 4549) ([3]; broth dilution, 18 hours at 35° C., strain GC 4549)
2 µg/mL: MIC Escherichia coli (GC 4560) [2]
32 µg/mL: MIC Enterococcus faecium (GC 4557) ([1]; Enterococcus faecium (GC 4557)) | MIC Enterococcus faecium (GC 4557) ([1]; broth dilution, strain GC 4557) | MIC Coagulase Negative Staphylococcus (GC 6257) ([3]; Coagulase Negative Staphylococcus (GC 6257), 18 hours at 35° C.) | MIC Coagulase Negative Staphylococcus (GC 6257) ([3]; broth dilution, 18 hours at 35° C., strain GC 6257) | MIC Streptococcus agalactiae (GC 4564) [4, 13] | MIC Streptococcus pyogenes (GC 4563) [4, 17] | MIC Streptococcus pyogenes (GC 4563) ([4]; broth dilution, strain GC 4563) | MIC Streptococcus agalactiae (GC 4564) ([4]; broth dilution, strain GC 4564)

CC(c1ccccc1)C1NC(=O)CNC(=O)C(CO)NC(=O)C(C(O)C2CNC(=N)N2C2OC(CO)C(O)C(O)C2O)NC(=O)C(C(O)C2CNC(=N)N2)NC(=O)C(Cc2ccc(OC3OC(CO)C(OC4OC5COC6(OC5C(O)C4O)C4CCCC6CCC4)C(O)C3O)cc2)NC1=O (stereo not drawn) [Example 212, Cyclo[glycyl-β-methylphenylalanyl-O-[4-O-(4,6-O-bicyclo[3.3.1]non-9-ylidenehexopyranosyl]hexopyranosyl]tyrosyl-3-(2-iminoimidazolidin-4-yl)seryl-3-(3-hexopyranosyl-2-iminoimidazolidin-4-yl)serylseryl]]
0.5 µg/mL: MIC Streptococcus pneumoniae (ATCC 6301) [4, 14] | MIC Streptococcus pneumoniae (ATCC 6301) [4, 18]
32 µg/mL: MIC Escherichia coli (ATCC 25922) [2] | MIC Escherichia coli (GC 4559) [2]
<0.06 µg/mL: MIC Streptococcus pneumoniae (GC 1894) [4, 15] | MIC Streptococcus pneumoniae (GC 1894) [4, 18]
1 µg/mL: MIC Coagulase Negative Staphylococcus (GC 6257) ([3]; strain GC 6257) | MIC Streptococcus agalactiae (GC 4564) [4, 13] | MIC Streptococcus pyogenes (GC 4563) [4, 17] | MIC Streptococcus agalactiae (GC 4564) [4, 18] | MIC Streptococcus pyogenes (GC 4563) [4, 18]
0.25 µg/mL: MIC Streptococcus pneumoniae (GC 4565) [4, 16] | MIC Streptococcus pneumoniae (GC 4565) [4, 18]
4 µg/mL: MIC Enterococcus avium (GC 4558) ([1]; Enterococcus avium (GC 4558)) | MIC Enterococcus faecium (GC 4557) ([1]; Enterococcus faecium (GC 4557)) | MIC Enterococcus avium (GC 4558) [1, 18] | MIC Enterococcus faecium (GC 4557) [1, 18] | MIC Staphylococcus aureus (GC 1131) ([3]; strain GC 1131) | MIC Staphylococcus aureus (GC 3053) ([3]; strain GC 3053) | MIC Staphylococcus aureus (GC 4544) ([3]; strain GC 4544)
8 µg/mL: MIC Enterococcus faecalis (ATCC 29212) [1, 5] | MIC Enterococcus faecalis (GC 2242) [1, 6] | MIC Enterococcus faecalis (GC 2691) [1, 7] | MIC Enterococcus faecalis (GC 3059) [1, 8] | MIC Enterococcus faecalis (GC 4552) [1, 9] | MIC Enterococcus faecalis (GC 4553) [1, 10] | MIC Enterococcus faecalis (GC 4554) [1, 11] | MIC Enterococcus faecalis (GC 6189) [1, 12] | MIC Enterococcus faecium (GC 2243) ([1]; Enterococcus faecium (GC 2243)) | MIC Enterococcus faecium (GC 4556) ([1]; Enterococcus faecium (GC 4556)) | MIC Enterococcus faecalis (ATCC 29212) [1, 18] | MIC Enterococcus faecalis (GC 2242) [1, 18] | MIC Enterococcus faecalis (GC 2691) [1, 18] | MIC Enterococcus faecalis (GC 3059) [1, 18] | MIC Enterococcus faecalis (GC 4552) [1, 18] | MIC Enterococcus faecalis (GC 4553) [1, 18] | MIC Enterococcus faecalis (GC 4554) [1, 18] | MIC Enterococcus faecalis (GC 6189) [1, 18] | MIC Enterococcus faecium (GC 2243) [1, 18] | MIC Enterococcus faecium (GC 4556) [1, 18]
2 µg/mL: MIC Escherichia coli (GC 4560) [2] | MIC Staphylococcus aureus (ATCC 29213) ([3]; strain ATCC 29213) | MIC Staphylococcus aureus (GC 3051) ([3]; strain GC 3051) | MIC Staphylococcus aureus (GC 4541) ([3]; strain GC 4541) | MIC Staphylococcus aureus (GC 4542) ([3]; strain GC 4542) | MIC Staphylococcus aureus-SMITH (GC 4543) ([3]; strain GC 4543) | MIC Staphylococcus aureus (GC 4545) ([3]; strain GC 4545) | MIC Staphylococcus haemolyticus (GC 4546) ([3]; strain GC 4546) | MIC Coagulase Negative Staphylococcus (GC 4547) ([3]; strain GC 4547) | MIC Coagulase Negative Staphylococcus (GC 4548) ([3]; strain GC 4548) | MIC Coagulase Negative Staphylococcus (GC 4549) ([3]; strain GC 4549) | MIC Coagulase Negative Staphylococcus (GC 4551) ([3]; strain GC 4551)
